Results published in article PMC11547735, “Effect of Oral Administration of Collagen Peptide OG-5 on Advanced Atherosclerosis Development in ApoE^−/− Mice” (Nutrients, 2024).
Read-outs that look alike come from different tables or passages of the source. Square brackets hold non-standard residues; d marks the D form. Peptide text beside a SMILES is read from it. Hyp = O=C(O)[C@@H]1C[C@@H](O)CN1

What was measured:
Caco-2 cell monolayers [1] = conditions: results reported for other peptides; cited from earlier work
Text: According to the previous study, a Papp value higher than 1.0 × 10^−5 cm ...

[2] = cited from earlier work
Text: The application of peptides is usually limited for the short half-life and is commonly due to fast renal clearance as well as enzymatic degradation, including aminopeptidases, carboxypeptidases, dipeptidases and endopeptidases occurring during systemic circulation.

[3] = Body weight and organ index of ApoE−/− mice after oral administration; type: in vivo, mouse; conditions: n = 8
Protocol: The animal study was performed in compliance with the requirements of the Guide for the Care and Use of Laboratory Animals (NIH publication No.86-23, revised 1996) and was approved by the Welfare Committee of Pony Testing International Group Co., Ltd., Beijing, China (PONY-2021-FL-12, approval date: 5 December 2021). The 7-week-old male ApoE^−/− mice and C57BL/6J mice were purchased from Beijing Vital River Laboratory Animal Technology Co., Ltd. (Beijing, China). The mice were acclimatized for a period of one week in a pathogen-free environment, maintained under a controlled 12-h light/dark cycle at a constant temperature of 21 °C. During this period, they had unrestricted access to a standard rodent chow diet and tap water. Following acclimatization, the mice were assigned to experimental groups randomly, with each group consisting of eight mice.
(§1) The establishment of the AS model in ApoE^−/− mice was divided into two stages. At I stage, 8-week-old male ApoE^−/− mice were fed a Western-type diet (42% fat; 21% anhydrous milk fat, 0.15% cholesterol) for 16 weeks to establish an early AS model. At II stage, a high-fat and high-cholesterol diet (containing 5% cholesterol, 0.5% sodium cholate, 20% fat) was replaced at the 17th week to accelerate the progress of AS till the 24th week. The C57BL6/J mice were utilized as the normal control group and maintained on a standard maintenance diet (20% protein; 5% fat; 50% carbohydrate; 5% cellulose; 10% vitamins and minerals). The mice were subsequently randomized into 4 groups, each consisting of 8 animals: (i) M Group (0.9% saline for ApoE^−/− mice), (ii) Sustainable OG-5 intervention group (50 mg/kg bw) during two stages, (iii) OG-5 treatment group (150 mg/kg bw), and (iv) aspirin group (25 mg/kg bw) at II stage. The OG-5 and aspirin were orally administered to mice every other day. Animals that were not subjected to any treatment and maintained on a normal diet served as the control group (N group). The body weight was monitored every week.
(§2) After 24-week treatment, the mice were fasted overnight and sacrificed. Blood was collected to stand at room temperature for 2 h, and the serum was separated by centrifugation for further analysis.

Caco-2 cell monolayers [4] = assay: Transport across Caco-2 cell monolayers; type: in vitro ADME, human; conditions: Caco-2 monolayers 21 days, TEER > 800 Ω·cm^2, apical to basolateral, HBSS, pre-incubation 1 h 37 °C, incubation 2 h, HPLC
Protocol: The Caco-2 cell culture and the establishment of the transepithelial transport model were according to the previous study. The Caco-2 cells (10–20 passages) were grown in DMEM supplemented with 10% FBS and 1% penicillin streptomycin at 37 °C.
For the establishment of the transepithelial transport model, Caco-2 cells were seeded onto permeable polyester inserts (12 mm diameter, with a growth surface area of 1.12 cm^2 and a pore size of 0.4 μm, sourced from Costar, Corning, NY, USA) placed in 12-well transwell plates at a density of 1 × 10^5 cells per insert. Over a period of 21 days, the cell culture medium was replaced cautiously every two days to facilitate the differentiation of Caco-2 cells into fully confluent monolayers. […] The Caco-2 cell monolayers were delicately rinsed twice with HBSS and subsequently pre-incubated at 37 °C for 1 h. […]
Transport percentage (%) is calculated by the following equation: (1) Transport percentage %=transported amount of peptide in basolateral side/intial amount of peptide in apical side×100
The apparent permeability coefficient (Papp, cm/s) was calculated as follows:(2) Papp=dQ/dt×1/A×1/C0 where dQ/dt is the permeability rate (mmol/s); A is the area of the membrane (cm^2); C0 is the initial peptide concentration in the donor chamber (mM).

[5] = Peptide stability in plasma; type: in vitro ADME; conditions: rat plasma (heparinized), 0.5 mM, 37 °C, 8 h incubation, 3 kDa ultrafiltration, HPLC-UV peak area
Protocol: The assessment of peptide stability in plasma was conducted with modifications to a previously described method. Briefly, blood samples were collected in heparinized tubes and immediately centrifuged to separate the plasma supernatant. Subsequently, OG-5 was added to achieve a final concentration of 0.5 mM, and the mixture was incubated at 37 °C. At specified time points (0, 0.5, 1.0, 2.0, 4.0, and 8.0 h), the mixture was centrifuged using a 3 kDa ultrafiltration centrifugal tube to separate the filtrate. The filtrate was then analyzed using a Shimadzu LC-15 HPLC system, equipped with an SPD-15 ultraviolet detector (Kyoto, Japan). The HPLC analysis conditions included an injection volume of 10 μL, a flow rate of 1 mL/min, and a gradient elution program: 0–25 min, 0–25% acetonitrile (buffer B); 25–30 min, 25–35% buffer B; 30–35 min, 35–100% buffer B. The quantity of peptide OG-5 in the plasma was determined based on its peak area.

[6] = In vivo absorption experiment on rats; conditions: rat
Protocol: The peptide absorption in vivo was conducted as previously described. The rats were orally administered with peptide OG-5 (1.0 g/kg bw). Blood samples were obtained via a minimal incision at the tail tip at 0, 0.5, 1, and 2 h after oral administration. The collected blood was transferred into 5 kDa ultrafiltration centrifugal tube, and the filtrate was collected for HPLC analysis. The elution program was conducted as follows: 0–5 min, 10–15% buffer B (acetonitrile); 5–20 min, 15–25% buffer B; 20–25 min, 25–100% buffer B.

ApoE^−/− mice [7] = assay: Bleeding time after long-term oral administration (Figure S1); type: in vivo, mouse; conditions: n = 8
Text: The following supporting information can be downloaded at: https://www.mdpi.com/article/10.3390/nu16213752/s1, Figure S1: Bleeding time after oral administration of peptide OG-5 in ApoE^−/− mice (n = 8).

ApoE^−/− mice [8] = assay: Serum lipid levels in ApoE−/− mice (advanced atherosclerosis model); type: in vivo, mouse; conditions: aspirin 25 mg/kg bw oral every other day at stage II, n = 8
Text: as §1, §2

[9] = OG-5 50 mg/kg bw oral every other day, stages I and II
[10] = OG-5 150 mg/kg bw oral every other day at stage II
[11] = long-term oral 150 mg/kg bw, bleeding time
[12] = aspirin 25 mg/kg bw oral every other day at stage II

For TNGIIR, the Papp (Caco-2 cell monolayers [1]) is given as 4.9e-06 cm/s.

For “RVPSL [literature antihypertensive peptide, ovotransferrin 328–332, compared for Caco-2 Papp]”, the Papp (Caco-2 cell monolayers [1]) is given as 7e-06 cm/s.

In the case of PGEOG, the half-life in plasma [2] is given as 4.3 h.

In the case of `O=C(O)CC[C@H](NC(=O)CNC(=O)[C@@H]1C[C@@H](O)CN1)C(=O)N[C@@H](Cc1ccccc1)C(=O)NCC(=O)O` [OG-5, OGEFG] (H-[Hyp]GEFG-OH), the “Initial Body weight” value ([3]; OG-5 50 mg/kg bw oral every other day, stages I and II (24 weeks), mean ± standard) is reported as 24.5 ± 1.0 g, the “Final Body weight” value ([3]; OG-5 50 mg/kg bw oral every other day, stages I and II (24 weeks)) is reported as 27.7 ± 2.2 g and the Spleen index [3, 9] is reported as 4.16 ± 0.99 mg/g bw. For the same compound, the Thymus index [3, 9] was 0.69 ± 0.15 mg/g bw, the “Initial Body weight” value ([3]; OG-5 150 mg/kg bw oral every other day at stage II (weeks 17-24)) was 27.8 ± 2.5 g and the “Final Body weight” value [3, 10] was 28.9 ± 2.0 g. For the same compound, the Spleen index [3, 10] was 4.80 ± 2.13 mg/g bw, the Thymus index [3, 10] was 0.79 ± 0.13 mg/g bw and the Papp (Caco-2 cell monolayers [4]) was 1.8e-05 cm/s. For the same compound, the Transport percentage (Caco-2 cell monolayers [4]; spread printed ± 0.57) was 14.40%, the “peptide remaining intact in plasma” value [5] was > 70% and the remaining at 8 h ([5]; read-out: peptide remaining intact in plasma) was 78.2%. The Tmax ([6]; po, 1 g/kg) was 2 h, the Cmax ([6]; rats, oral 1.0 g/kg bw, tail blood at 0, 0.5, 1, 2 h, 5 kDa ultrafiltration, HPLC, read-out: peak plasma concentration) was 77.8 µM and the “bleeding risk compared to aspirin” value (ApoE^−/− mice [7]; [11]) was “lower bleeding risk”. The “bleeding risk compared with M model” value (ApoE^−/− mice [7]; [11]) was “a little bleeding risk” and the bleeding risk (ApoE^−/− mice [7]; low-dose sustainable intervention 50 mg/kg bw from stage I) was “without bleeding risks”.

With `CC(=O)Oc1ccccc1C(=O)O` [Aspirin, reference compound] the “Final Body weight” value [3, 12] was 28.8 ± 1.7 g, the “Initial Body weight” value [3, 12] was 27.7 ± 2.8 g and the Spleen index [3, 12] was 4.99 ± 2.64 mg/g bw. The Thymus index [3, 12] was 0.83 ± 0.12 mg/g bw, the HDL-C (ApoE^−/− mice [8]) was 0.64 ± 0.37 mM and the LDL-C (ApoE^−/− mice [8]) was 9.55 ± 1.89 mM. The TC (ApoE^−/− mice [8]) was 41.09 ± 6.05 mM and the TG (ApoE^−/− mice [8]) was 3.43 ± 0.96 mM.
